One series concerns F18+ E. coli. Kind of series: Blocking assay with fluorescein conjugated A6-1 monomers. Format: binding, Escherichia coli. Conditions: pre-incubation 1 h; actual A6-1 12 μg/ml (CMCL, CMCM), 120 μg/ml (polylysine); monomeric A6-1 1 mg/ml. How it is done:
A blocking assay was developed to understand inhibition. In this assay, F18+E. coli were first incubated for one hour at room temperature with either the carriers or A6-1 conjugates, while gently shaking. Concentrations used were chosen so that the actual A6-1 concentration was 12 μg/ml for A6-1 conjugated carriers CMCM and CMCL (and the similar concentration of non-conjugated carriers) or 120 μg/ml for the A6-1 conjugated carrier polylysine (A6-1-PL-14). […] Subsequently, fluorescein conjugated A6-1 monomers (A6-F) were added (1 mg/ml) for one hour at room temperature. The fluorescing oligosaccharide was labeled at the reducing end of the molecule with fluorescein (also named 6A1-FITC). Next free A6-1-fluorescein was washed away with PBS followed by centrifugation at 2000 g for 5 min and resuspensions of the pellet with PBS. This was repeated twice.
If carriers without A6-1 bind to the bacteria, they will block the binding of A6-F and no fluorescence-bound bacteria can be detected by fluorescence microscopy. If there is no binding of the carrier to the bacteria in the first step of the test, fluorescing bacteria will be seen. […]
As aforementioned, high non-AG based inhibition of most carriers was observed. […] Subsequently, fluorescence conjugated AG-1 monomers (AG-1-F) were added and binding of the fluorescing AG-1 to the bacteria was determined using a fluorescence microscope.

Series [1] has as its system F18+ E. coli (strain 107/86). Conditions: for Average % inhibition: free A6-1 10 mg/ml (positive control); for Conjugate inhibition (M) / M − C (measure of the specific blockage of F18 fimbriae by A6) / Optimal inhibitory dose: A6 supplied via the conjugate / Optimal inhibitory dose: Carrier supplied via the conjugate: Table 9; for Conjugate inhibition (M): A6-1 conjugate of the carrier, at its optimal inhibitory dose; for M − C (measure of the specific blockage of F18 fimbriae by A6): difference conjugate inhibition minus carrier inhibition; for Optimal inhibitory dose: A6 supplied via the conjugate / Optimal inhibitory dose: Carrier supplied via the conjugate: in vitro.

A further series deals with β-hemolytic coliforms. It counts as in vivo, pig. Conditions: AGP (50 mg/kg carbadox).
The subject of series [2] is F18 E. coli. The experiment in a line: Part E: bacterial translocation in lymph nodes and spleen. Conditions: AGP.
The test system of series [3] is F18ac bacteria 2134P (STa+ STb+). The experiment in a line: In vivo small intestinal segment perfusion model (SISP). Further details: species or system pig.
Series [4] concerns F18 E. coli. It counts as in vivo, pig. Conditions: compared with positive control; P<0.05.
The test system of series [5] is F18 E. coli. Kind of series: Part E: intestinal morphology. Conditions: linear.
Setting [6] is: d 5 PI, compared with the control, P<0.05.

From patent US20240050582A1, “CONJUGATES INCLUDING MULTIPLE SACCHARIDIC CHAINS ON A LINEAR PROTEIN AND USES IN MAMMALS FEED” (UNIVERSITEIT GENT, priority 2021, published 2024) come the findings set out here.

Like-named read-outs stand apart in the source and are kept apart here. Marks after values point to notes of the source that are not given here.

As for `CC(=O)N[C@H]1[C@@H](O[C@H]2[C@@H](O)[C@@H](CO)O[C@@H](O[C@H]3[C@H](O)[C@@H](CO)O[C@@H](O[C@H]4[C@@H](O)[C@@H](CO)O[C@@H](O[C@H]5[C@H](O)[C@@H](O)C(O)O[C@@H]5CO)[C@@H]4O)[C@@H]3NC(C)=O)[C@@H]2O[C@@H]2O[C@@H](C)[C@@H](O)[C@@H](O)[C@@H]2O)O[C@H](CO)[C@H](O)[C@@H]1O` (stereo partly drawn) [A6-1, GalNAcα1-3(Fucα1-2)Galβ1-3GlcNAcβ1-3Galβ1-4Glc, reference compound], the “fluorescence of bacteria after A6-1-fluorescein (blocking of A6-F binding)” value in the series with F18+ E. coli is “completely abolished fluorescence”. Moreover, the Average % inhibition is given as 71.3% in series [1] (Table 8-A); 69.5% in series [1] (Table 8-B CMCL type 1); 57.05% in series [1] (Table 8-B CMCL type 2); 63.6% in series [1] (Table 8-C CMCM type 1); 61.26% in series [1] (Table 8-C CMCM type 2).
Regarding `COC(=O)N/N=C/c1c[n+]([O-])c2ccccc2[n+]1[O-]` [AGP, carbadox], the “percentage of β-hemolytic coliform” value is given as 31.56^b % in the series on β-hemolytic coliforms (d 2 PI), 8.79^b % in the series on β-hemolytic coliforms (d 5 PI), 2.77^b % in the series with β-hemolytic coliforms (d 8 PI) and 2.10% with β-hemolytic coliforms (d 11 PI). The figures for the “Bacterial translocation, Lymph node” value in the series with F18 E. coli [2] (d 5 PI) and with F18 E. coli [2] (d 11 PI) were 147^ab cfu/g and 279^ab cfu/g, respectively. The “Bacterial translocation, Spleen” value with F18 E. coli [2] (d 5 PI) is 47 cfu/g; in the series with F18 E. coli [2] (d 11 PI), 56^b cfu/g.
On to `CNCCCCC(CNCCCCC(N)C(=O)NCCCCC(N)C(C)=O)NCC(O)C(O)C(O[C@@H]1OC(CO)[C@H](O)C(O[C@@H]2OC(CO)[C@@H](O)C(O[C@@H]3OC(CO)[C@H](O)C(O[C@H]4OC(CO)[C@H](O)C(O)C4NC(C)=O)C3O[C@@H]3OC(C)[C@@H](O)C(O)C3O)C2NC(C)=O)C1O)C(O)CO` (stereo partly drawn) [Coligo A6PL], for which the “net absorption of perfusion fluid” value in series [3] (2 μg/ml actual A6-1 (A6-1-PL-14), segment number 4) is given as “+0.03 g/cm^2”; in series [3] (8 μg/ml actual A6-1 (A6-1-PL-14), segment number 5) it was “+0.21 g/cm^2”; in series [3] (32 μg/ml actual A6-1 (number 6) or the same concentration of polylysine (number 8)) it was 0 g/cm^2. The “feed efficiency from d 0 to 5 PI” value in the series on F18 E. coli [4] is “enhanced”. The “ratio of villi height to crypt depth in jejunum” value in the series on F18 E. coli [5] (setting [6]) was “enhanced”. Also, in the series with F18 E. coli [5] (setting [6]), the “villi height, ratio of villi height to crypt depth, and villi area in ileum” value is “increased”. Besides, in the series with F18 E. coli [5] (setting [6]), the “villi height, ratio of villi height to crypt depth, villi width, and villi area in duodenum” value was “dose-dependently increased”. In addition, the “ratio of villi height to crypt depth in jejunum and ileal villi height” value in the series with F18 E. coli [5] (d 11 PI, P<0.10) is reported as “tended to increase”.
Alginate [reference compound]: in series [1], the “Conjugate inhibition (M)” value amounted to 41%, the “M − C (measure of the specific blockage of F18 fimbriae by A6)” value was −15%, the “Optimal inhibitory dose: A6 supplied via the conjugate” value worked out at 0.6 µg/mL and the “Optimal inhibitory dose: Carrier supplied via the conjugate” value was found to be 0.081 mg/mL.
For Pectin [reference compound], in series [1], the “Conjugate inhibition (M)” value was found to be 64%, the “M − C (measure of the specific blockage of F18 fimbriae by A6)” value is reported as −5%, the “Optimal inhibitory dose: A6 supplied via the conjugate” value worked out at 1.2 µg/mL and the “Optimal inhibitory dose: Carrier supplied via the conjugate” value was determined as 0.25 mg/mL.
